Measurements from ChEMBL document CHEMBL1909590, “Design, synthesis and docking studies of new quinoline-3-carbohydrazide derivatives as antitubercular agents” (2011).
Converted amounts (≈) assume the structure as drawn.

Tested on: Mycobacterium tuberculosis
Test: Antimycobacterial activity against isoniazid, rifampicin and ethambuto-resistant Mycobacterium tuberculosis using compound level ranging from 0.3125 to 5 ug/mL after 7 days by resazurin reduction test
Type: functional
Conditions: 168 h

Compound	MIC
O=C(N/N=C/c1cc(F)ccc1O)c1cnc2c(C(F)(F)F)cccc2c1O	> 50 µg/mL
NNC(=O)c1ccncc1 [ISONIAZID]	12.5 µg/mL (≈ 91.1 µM)
Cn1nnc2cc(/C=N\NC(=O)c3cnc4c(C(F)(F)F)cccc4c3O)ccc21	> 50 µg/mL
Cn1cccc1/C=N\NC(=O)c1cnc2c(C(F)(F)F)cccc2c1O	6.25 µg/mL (≈ 17.3 µM)
COc1ccc2[nH]cc(/C=N/NC(=O)c3cnc4c(C(F)(F)F)cccc4c3O)c2c1	6.25 µg/mL (≈ 14.6 µM)
COc1ccc(NC(=S)NNC(=O)c2cnc3c(C(F)(F)F)cccc3c2O)cc1	> 50 µg/mL
O=C(N/N=C/c1cnc[nH]1)c1cnc2c(C(F)(F)F)cccc2c1O	> 50 µg/mL
COC(=O)Cc1cc(/C=N/NC(=O)c2cnc3c(C(F)(F)F)cccc3c2O)co1	> 50 µg/mL
Cc1ccc(NC(=O)NNC(=O)c2cnc3c(C(F)(F)F)cccc3c2O)cc1	25 µg/mL (≈ 61.8 µM)
CCc1ccc(NC(=O)NNC(=O)c2cnc3c(C(F)(F)F)cccc3c2O)cc1	> 50 µg/mL
COc1ccc(/C=N/NC(=O)c2cnc3c(C(F)(F)F)cccc3c2O)c(F)c1	6.25 µg/mL (≈ 15.3 µM)
Cc1cccc2c(/C=N/NC(=O)c3cnc4c(C(F)(F)F)cccc4c3O)c[nH]c12	6.25 µg/mL (≈ 15.2 µM)
O=C(NNC(=S)Nc1cccc(Cl)c1)c1cnc2c(C(F)(F)F)cccc2c1O	25 µg/mL (≈ 56.7 µM)
COc1ccc(/C=N/NC(=O)c2cnc3c(C(F)(F)F)cccc3c2O)cc1	12.5 µg/mL (≈ 32.1 µM)
Cc1ccc(/C=N/NC(=O)c2cnc3c(C(F)(F)F)cccc3c2O)cc1	> 50 µg/mL
O=C(NNC(=O)c1cnc2c(C(F)(F)F)cccc2c1O)Nc1cccc(Cl)c1	25 µg/mL (≈ 58.9 µM)
COc1ccc(/C=N/NC(=O)c2cnc3c(C(F)(F)F)cccc3c2O)cc1O	> 50 µg/mL
O=C(NNC(=S)Nc1ccccc1F)c1cnc2c(C(F)(F)F)cccc2c1O	12.5 µg/mL (≈ 29.5 µM)
CO[C@H]1/C=C/O[C@@]2(C)Oc3c(C)c(O)c4c(O)c(c(/C=N/N5CCN(C)CC5)c(O)c4c3C2=O)NC(=O)/C(C)=C\C=C\[C@H](C)[C@H](O)[C@@H](C)[C@@H](O)[C@@H](C)[C@H](OC(C)=O)[C@@H]1C [RIFAMPIN]	25 µg/mL (≈ 30.4 µM)
Cc1cc(C)cc(NC(=O)NNC(=O)c2cnc3c(C(F)(F)F)cccc3c2O)c1	> 50 µg/mL
COc1ccc(NC(=O)NNC(=O)c2cnc3c(C(F)(F)F)cccc3c2O)cc1	12.5 µg/mL (≈ 29.7 µM)
Cc1[nH]cnc1/C=N/NC(=O)c1cnc2c(C(F)(F)F)cccc2c1O	> 50 µg/mL
O=C(N/N=C/c1ccc(OC(F)(F)C(F)F)cc1)c1cnc2c(C(F)(F)F)cccc2c1O	25 µg/mL (≈ 52.6 µM)
